From paper PMC11012005 (International Journal of Molecular Sciences, 2024)
Non-standard residues stand in square brackets, D forms with d. Residues, ends and D or L forms follow the SMILES beside them.

Assays:
human MOR [1] = biological target: T1, human MOR (Homo sapiens, UniProt P35372); experiment: [35S]GTPγS binding assay, CHO-hMOR cell membranes; format: biochemical; conditions: for % stim.: relative to reference MOR agonist DAMGO, mean ± SEM, n = 3–4
T1 construct: expressed in transfected cells; host or cells: CHO cells (CHO-hMOR), gift of Dr. Lawrence Toll, SRI International
From the text: All data are presented as mean ± SEM. A p < 0.05 was considered statistically significant.

human NOP receptor = biological target: T2, human NOP receptor (Homo sapiens, UniProt P41146); experiment: Radioligand binding, [3H]nociceptin, CHO-hNOP cell membranes; conditions: for Ki: CHO-hNOP membranes, [3H]nociceptin 0.1 nM, n = 3, read-out: Opioid Receptor Binding (Ki, nM) NOP
T2 construct: expressed in transfected cells; host or cells: CHO cells (CHO-hNOP), gift of Dr. Lawrence Toll, SRI International

human KOR = biological target: T3, human KOR (Homo sapiens, UniProt P41145); experiment: Radioligand competition binding, [3H]U69,593, CHO-hKOR cell membranes; conditions: for Ki: CHO-hKOR membranes, [3H]U69,593 1 nM, mean ± SEM, n = 3, read-out: Opioid Receptor Binding (Ki, nM) KOR
T3 construct: expressed in transfected cells; host or cells: CHO cells (CHO-hKOR), gift of Dr. Lawrence Toll, SRI International

mice [2] = experiment: Rotarod test after s.c. administration; format: in vivo; conditions: 7.8 and 39 µmol/kg, any time point, vs. saline
Experimental: (§1) Experiments were performed with male CD1 mice (8–10 weeks old, 30–35 g body weight) purchased from Janvier Labs (Le Genest-Saint-Isle, France). All animal care and experimental procedures were in accordance with the ethical guidelines for the animal welfare standards of the European Communities Council Directive (2010/63/EU) and were approved by the Committee of Animal Care of the Austrian Federal Ministry of Science and Research. Mice were group-housed (maximum of 5 animals per cage) in a temperature- (21–22 °C) and humidity-controlled (60–70%) specific pathogen-free room with a 12 h light/dark cycle and with free access to food and water. LENART01 and naloxone were prepared in sterile physiological 0.9% saline solution. Tested doses of LENART01 were 0.78, 3.9, 7.8 and 39 µmol/kg (1, 5, 10 and 50 mg/kg, respectively). LENART01 or vehicle (saline) were s.c. administered in a volume of 10 µL/g body weight.
Animals were accustomed to the equipment in two training sessions (30 min apart) one day before testing. […] The time spent on the drum was recorded for each mouse before (baseline) and after the s.c. administration of saline or test compound (i.e., 30, 60 and 120 min). […] The rotarod data are expressed as percentage (%) changes from the rotarod latencies obtained before (baseline, B) and after drug administration (test, T) and were calculated as follows: 100 × (T/B). […]

human DOR = biological target: T4, human DOR (Homo sapiens, UniProt P41143); experiment: Radioligand competition binding, [3H]DPDPE, CHO-hDOR cell membranes
T4 construct: expressed in transfected cells; host or cells: CHO cells (CHO-hDOR), gift of Dr. Lawrence Toll, SRI International

[3] = Pharmacokinetic study: detection in brain homogenate by LC-DAD-MS (BBB permeability); format: in vivo; conditions: 7.8 and 39 µmol/kg s.c., mice, brains two hours after treatment
Experimental: as §1
Two hours after the s.c. administration of LENART01 (doses of 7.8 and 39 µmol/kg), the mice were sacrificed and the brains were removed, washed with sterile physiological 0.9% saline and frozen in dry ice until use. […] The MS spectra were recorded in the negative ion mode only. The UV spectra were recorded over the range of 200–600 nm. […] The presence of the analyzed compound was checked by the monitoring of its pseudomolecular ion eluting at ca. 10 min. […]

[4] = Body weight changes during chronic s.c. treatment; format: in vivo, mice; conditions: chronic administration of 7.8 µmol/kg s.c. twice daily for 5 days, vs. saline
Experimental: as §1, with “Tested doses of LENART01 were 0.78, 3.9, 7.8 and 39 µmol/kg (1, 5, 10 and 50 mg/kg, respectively). LENART01 or vehicle (saline) were s.c. administered in a volume of 10 µL/g body weight.” left out
(§2) Opioid physical dependence was assessed using naloxone-induced withdrawal syndrome in mice as described previously. […] Animals were immediately placed in clear acrylic cylinders, and signs of opioid withdrawal were recorded for 15 min. Monitored behaviors included vertical jumps, paw tremor, head shakes, urine output, the presence/absence of diarrhea, feces output and body weight loss. For each mouse, a global withdrawal score was calculated by summing the values obtained for each sign (one point was assigned to every 3 jumps and 5 paw tremors, respectively, whereas all other signs were given the absolute values recorded during the test). […]

mice [5] = experiment: Naloxone-precipitated withdrawal syndrome after chronic s.c. treatment; format: in vivo; conditions: 7.8 µmol/kg s.c. twice daily for 5 days; naloxone 1 mg/kg s.c. two hours after last injection; vs. saline
Experimental: as §1, with “Tested doses of LENART01 were 0.78, 3.9, 7.8 and 39 µmol/kg (1, 5, 10 and 50 mg/kg, respectively). LENART01 or vehicle (saline) were s.c. administered in a volume of 10 µL/g body weight.” left out
as §2

human MOR [6] = biological target: T1, human MOR; experiment: Radioligand competition binding, [3H]DAMGO, CHO-hMOR cell membranes; conditions: read-out: Opioid Receptor Binding (Ki, nM) MOR
mice [7] = conditions: s.c., 31 µmol/kg (10 mg/kg); cited from earlier work
mice [8] = conditions: repeated s.c. administration, 15 µmol/kg (5 mg/kg); cited from earlier work

## C[C@@H](NC(=O)[C@@H](N)Cc1ccc(O)cc1)C(=O)NCC(=O)N(C)[C@@H](Cc1ccccc1)C(=O)NCCO [DAMGO, reference compound]
Human MOR [1]
  % stim.: 100%

## C[C@@H](NC(=O)[C@@H](N)Cc1ccc(O)cc1)C(=O)N[C@@H](Cc1ccccc1)C(=O)NCC(=O)N[C@@H](Cc1ccc(O)cc1)C(=O)N1CCC[C@H]1C(=O)N[C@@H](CO)C(N)=O [Dermorphin, reference compound]
Human MOR [1]
  % stim.: 104 ± 8%
Human NOP receptor
  Ki: > 10000 nM
Human NOP receptor; at the concentration of 10 µM, [3H]nociceptin
  Specific binding to human NOP receptor: no substantial binding
Human KOR
  Ki: 2710 ± 873 nM

## CSCC[C@H](NC(=O)[C@H](Cc1ccccc1)NC(=O)[C@H](Cc1c[nH]cn1)NC(=O)CNC(=O)[C@H](CO)NC(=O)[C@@H]1CCCN1C(=O)[C@H](Cc1ccc(O)cc1)NC(=O)CNC(=O)[C@H](Cc1ccccc1)NC(=O)[C@@H](C)NC(=O)[C@@H](N)Cc1ccc(O)cc1)C(N)=O [LENART01] (H-Y[dA]FGYPSGHFM-NH2)
Mice [2]
  Effect on rotarod latencies (motor behavior): no significant alterations in the rotarod latencies
Human MOR [1]
  EC50: 48.5 ± 10.6 nM
  % stim.: 110 ± 7%
Human DOR; CHO-hDOR membranes, [3H]DPDPE 1 nM, mean ± SEM, n = 3, read-out: Opioid Receptor Binding (Ki, nM) DOR
  Ki: 227 ± 47 nM
Human DOR; Ki ratio DOR/MOR
  Selectivity Ki Ratios DOR/MOR: 21
Human NOP receptor
  Ki: > 10000 nM
Human NOP receptor; Ki ratio NOP/MOR
  Selectivity Ki Ratios NOP/MOR: >900
[3]
  Transport across the BBB (signal in brain homogenate): no detectable signal
[4]
  Effect on body weights: did not have any significant effect on the body weights
Mice [5]
  Naloxone-precipitated withdrawal signs: did not induce withdrawal signs
Human MOR [6]
  Ki: 11 ± 1.5 nM
Human KOR
  Ki: 1310 ± 226 nM
Human KOR; Ki ratio KOR/MOR
  Selectivity Ki Ratios KOR/MOR: 119

## CN1CC[C@]23c4c5ccc(O)c4O[C@H]2[C@@H](O)C=C[C@H]3[C@H]1C5 [morphine]
Mice [7]
  Effect on time on the rotarod: significantly reduced time on the rotarod
Mice [8]
  Naloxone-induced withdrawal syndrome: significant naloxone-induced withdrawal syndrome
